Results on 21 compounds are retold here after the SangsterLogP compilation.

One data set can be described thus: method code SF-AS, from DOI: 10.1002/qsar.19880070104. The following applies: pH 7.4.
One may read the logD as the decadic logarithm of the distribution of all forms, ionised or not, between an organic phase and buffer at a given pH. On to `Cc1cccc(C)c1OC(=O)c1ccc(CN2CCOCC2)cc1`, for which the logD was 3.92.

`Cc1cccc(C)c1OCc1cccc(CN2CCOCC2)c1` displayed a logD of 3.74.

As to `Cc1cccc(C)c1OC(=O)NCc1ccc(CN2CCOCC2)cc1`, the logD was found to be 2.7.

Turning to `Cc1cccc(C)c1OCc1ccc(CN2CCOCC2)cc1`, the logD was 3.76.

Compound `Cc1cccc(C)c1NC(=O)OCc1ccc(CN2CCOCC2)cc1` showed a logD of 2.2.

In the case of `Cc1cccc(C)c1NC(=O)c1ccccc1CN1CCOCC1`, the logD turned out to be 2.46.

As to `Cc1cccc(C)c1NC(=O)OCc1cccc(CN2CCOCC2)c1`, the logD came out at 1.85.

Compound `Cc1cccc(C)c1OC(=O)NCc1ccccc1CN1CCOCC1` returned a logD of 3.54.

`Cc1cccc(C)c1OC(=O)c1cccc(CN2CCOCC2)c1` registered a logD of 3.91.

As to `Cc1cccc(C)c1OC(=O)NCc1cccc(CN2CCOCC2)c1`, the logD is 2.91.

The compound `Cc1cccc(C)c1NC(=O)OCc1ccccc1CN1CCOCC1` came in with a logD of 2.8.

In turn, `Cc1cccc(C)c1OC(=O)c1ccccc1CN1CCOCC1` came in with a logD of 3.48.

As for `Cc1cccc(C)c1OC(=O)OCc1ccc(CN2CCOCC2)cc1`, the logD was found to be 3.34.

`Cc1cccc(C)c1OC(=O)OCc1cccc(CN2CCOCC2)c1`: the logD turned out to be 3.47. This logD and that of the compound before are within 0.2 log units of each other.

Experiment in the next data set: not given
Details: not given
In general, logP refers to the decadic logarithm of the partition coefficient of the neutral form, usually between octanol and water. A high value points to higher lipophilicity. Take `Cc1cccc(C)c1OC(=O)c1ccccc1CN1CCCC1`: the logP was found to be 3.09.

For `Cc1cccc(C)c1OC(=O)c1ccc(CN2CCCCC2)cc1`, the logP is 3.5.

The compound `Cc1cccc(C)c1NC(=O)c1ccc(CN2CCOCC2)cc1` registered a logP of 1.76.

For the compound `Cc1cccc(C)c1OC(=O)c1cccc(CN2CCCC2)c1`, the logP was 3.18.

`CCN(CC)Cc1cccc(C(=O)Oc2c(C)cccc2C)c1` yielded a logP of 2.99.

As to `Cc1cccc(C)c1OCc1ccccc1CN1CCOCC1`, the logP amounted to 4.16.

The compound `Cc1cccc(C)c1OC(=O)c1ccc(CN2CCCC2)cc1` showed a logP of 3.2.
